Test results as given in patent US20080026474A1, “ASSAY FOR DIFFERENTIATING COMPOUNDS THAT MODULATE THE EXTRINSIC AND/OR INTRINSIC COAGULATION PATHWAYS” (Bristol-Myers Squibb Company, priority 2006, published 2008).
“Also recorded” adds a separate entry of the source.

Key:
[1] = tested on: TF-induced platelet aggregation in human platelet-rich plasma; assay: TF-induced platelet aggregation assay (time delay / lag time) in human platelet-rich plasma; type: cell-based; details: human PRP; for time delay of platelet aggregation: 0 μM = 75 seconds; for 2×Base value (concentration required to double the time for TF-induced platelet aggregation): time delay of TF-induced platelet aggregation
Description: The remaining samples were then centrifuged at […] for 10 min to obtain platelet-poor plasma (PPP). Platelet count was adjusted to 2-2.5×10^8 cells/ml with platelet-poor plasma.
PRP (275 μl) sample was briefly mixed with 25 μl of 36 mg/ml pefabloc. Various compounds (in a volume of 1.2 μl) were added and incubated at 37° C. for 3 min in a cylindrical glass cuvette. Platelet aggregation was induced by 4 μl of Innovin®-CaCl2 mixture and measured under continuous stirring at 1000 rpm in a PA-200 platelet aggregation analyzer (Kowa, Tokyo, Japan). Platelet-poor plasma was used as a reference. Platelet aggregation curves defined by changes in light transmission over time were recorded for 15 min. The lag time was defined as the time from CaCl2 addition until the light transmittance reached 1%. The concentration of Innovin® and CaCl2 was adjusted for each sample so that the average control lag time was from 50 to 70 seconds.

[2] = tested on: thrombus formation in carotid artery; assay: Rabbit ECAT model; type: in vivo; details: i.v. infusion, drug concentration maintaining total blood flow at 80% of baseline
Description: Briefly, male, New Zealand, white rabbits were anesthetized with ketamine (50 mg/kg+50 mg/kg/h i.m.) and xylazine (10 mg/kg+10 mg/kg/h i.m.). These anesthetics were supplemented as needed. An electromagnetic flow probe was placed on a segment of an isolated carotid artery to monitor blood flow. Thrombus formation was induced by electrical stimulation of the carotid artery for 3 min at 4 mA using an external stainless steel bipolar electrode. […] Plasma concentrations were determined in blood samples taken at the end of the experiment by liquid chromatography-tandem mass spectrometry.
Carotid blood flow was measured continuously over the 90-min period of thrombus formation and total carotid blood flow was calculated as an area under the carotid blood flow-time curve. Preservation of total CBF relative to sustained baseline flow was used to assess antithrombotic activity. The drug concentrations which maintained total blood flow at 80% of baseline (ED80) was the common comparator among antithrombotic agents.

Structure (SMILES) | effect on the time delay of TF-induced platelet aggregation (in words) [1] | 2×Base value (concentration required to double the time for TF-induced platelet aggregation) [1] [µM] | ED80 [2] [nM] | also measured
NCc1ccccc1-n1nc(C(F)(F)F)cc1C(=O)Nc1ccc(-c2ccccc2S(N)(=O)=O)cc1F [1-(2-aminomethylphenyl)-3-trifluoromethyl-N-[3-fluoro-2′-(aminosulfonyl)[1,1′-biphenyl)]-4-yl]-1H-pyrazole-5-carboxyamide] | dose-dependent effects |  |  | 
COc1cc([C@@H]2Nc3ccc(C(=N)N)cc3[C@H]3c4ccccc4C[C@H]32)c(-c2ccc(C(=O)O)cc2)cc1O [Compound A, 2′-((6R,6aR,11bR)-2-Carbamimidoyl-5,6a,7,11b-tetrahydro-6H-indeno[2,1-c]quinolin-6-yl)-5′-hydroxy-4′-methoxy-biphenyl-4-carboxylic acid] | concentration-dependent effect; also recorded: Dose-dependent effect | 1.25 | 1100 | time delay of platelet aggregation ([1]; 1.26 μM): 175 s; time delay of platelet aggregation ([1]; 4.0 μM): 286 s; time delay of platelet aggregation ([1]; 12.6 μM): 671 s; time delay of platelet aggregation ([1]; 25.2 μM): 865 s
CS(=O)(=O)c1ccccc1-c1ccc(NC(=O)c2cc(C(F)(F)F)nn2-c2cccc(CN)c2)c(F)c1 [Compound B, 1-[3-(aminomethyl)phenyl]-N-[3-fluoro-2′-(methylsulfonyl)[1,1′-biphenyl]-4-yl]-3-(trifluoromethyl)-1H-pyrazole-5-carboxamide] |  |  | 400 | 
CC(C)CC(=O)Nc1cc(-c2ccc(C(N)=O)cc2C(=O)O)cc([C@@H]2C[C@](C)(c3ccccc3)c3cc(C(=N)N)ccc3N2)c1 [Compound C, 3′-((2S,4R)-6-Carbamimidoyl-4-methyl-4-phenyl-1,2,3,4-tetrahydro-quinolin-2-yl)-4-carbamoyl-5′-(3-methyl-butyrylamino)-biphenyl-2-carboxylic acid] | barely showed any effect; also recorded: No effect | 26 | 800 | effect on TF-induced platelet aggregation at high dose (in words) ([1]; 40 μM): weak efficacy
CC(C)(C)c1ccccc1Oc1ncccc1NC(=O)Nc1ccc(OC(F)(F)F)cc1 [Compound F, 1-[2-(2-tert-Butyl-phenoxy)-pyridin-3-yl]-3-(4-trifluoromethoxy-phenyl)-urea] | no effect | ~0 |  | 
CNc1ncnc2c1ncn2[C@H]1C[C@H](OP(=O)(O)O)[C@@H](COP(=O)(O)O)O1 [N6-methyl-2′-deoxyadenosine-3′,5′-bisphosphate, reference compound] | no effect |  |  | 
CSCCNc1nc(SCCC(F)(F)F)nc2c1ncn2[C@@H]1O[C@H](COP(=O)(O)OP(=O)(O)C(Cl)(Cl)P(=O)(O)O)[C@@H](O)[C@H]1O [cangrelor, reference compound] | no effect |  |  | 
